Laboratory results published in patent US8691993B2, “Piperidinyl naphthylacetic acids” (Hoffman-La Roche Inc., priority 2011, dated 2014).

Tested on: Th2 cells
Assay: DK-PGD2-Induced IL-13 Production Assay in Th2 Cells
Assay type: cell-based
Conditions: inhibition of IL-13 production; human Th2 cells; 500 nM DK-PGD2; 4 hrs at 37° C.; ELISA
Description: DK-PGD2-Induced IL-13 Production Assay in Th2 Cells
Inhibition of 13,14-dihydro-15-keto Prostaglandin D2 (DK-PGD2)-induced IL-13 production in T helper type 2 (Th2) cells was applied to evaluate compound cellular potency.
Cultures of Th2 cells were established from blood of healthy human volunteers according to the following procedure. Peripheral blood mononuclear cells (PBMC) were first isolated from 50 mL of fresh blood by Ficoll-Hypaque density gradient centrifugation, followed by CD4^+ cell purification using a CD4^+ T Cell Isolation Kit II (from Miltenyi Biotec Inc.). The CD4^+ T cells were then differentiated to Th2 cells by culturing the cells in X-VIVO 15® medium (from Cambrex BioScience Walkersville Inc.) containing 10% human AB serum (serum of blood type AB from Invitrogen Corporation), 50 U/mL of recombinant human interleukin-2 (rhIL-2) (from PeproTech Inc.) and 100 ng/mL of recombinant human interleukin-4 (rhIL-4) (from PeproTech Inc.) for 7 days. The Th2 cells were isolated using a CD294 (CRTH2) MicroBead Kit (from Miltenyi Biotec Inc.) and amplified in X-VIVO 15® medium containing 10% human AB serum and 50 U/mL of rhIL-2 for 2 to 5 weeks. In general, 70% to 80% of the Th2 cells used in the assay are CRTH2-positive when analyzed by fluorescence-activated cell sorting using the BM16 antibody (as previously described) conjugated to Alexa Fluor 647.
The spontaneous production of IL-13 by Th2 cells was determined in the absence of DK-PGD2 stimulation and the value was subtracted from that in the presence of each compound for percent inhibition and IC50 calculations.
The percent inhibition of interleukin 13 (IL-13) production for a compound at various concentrations was calculated according to the following formula, [1-(IL-13 production in the presence of compound)/(IL-13 production in the presence of 0.15% DMSO)]×100. The IC50 value, defined as the concentration of a compound that is required for 50% inhibition of IL-13 production, was calculated by fitting the percent inhibition data for 7 concentrations to a sigmoidal dose-response (4 parameter logistic) model in the XLfit® software Excel add-in program [ID Business Solutions Ltd., model 205, where F(x)=(A+(B−A)/(1+((C/x)^D)))].

Row | IC50 [µM] | SMILES
1 | 0.033 | Cc1c(CC(=O)O)cc2ccc(F)cc2c1C1CCN(S(=O)(=O)c2ccccc2Cl)CC1 [Example 14, {4-[1-(2-Chloro-benzenesulfonyl)-piperidin-4-yl]-6-fluoro-3-methyl-naphthalen-2-yl}-acetic acid]
2 | 0.142 | Cc1c(CC(=O)O)cc2ccc(F)cc2c1C1CCN(S(C)(=O)=O)CC1 [Example 15, [6-Fluoro-4-(1-methanesulfonyl-piperidin-4-yl)-3-methyl-naphthalen-2-yl]-acetic acid]
3 | 0.022 | Cc1c(CC(=O)O)cc2ccc(F)cc2c1C1CCN(S(=O)(=O)c2ccc(Cl)cc2Cl)CC1 [Example 16, {4-[1-(2,4-Dichloro-benzenesulfonyl)-piperidin-4-yl]-6-fluoro-3-methyl-naphthalen-2-yl}-acetic acid]
4 | 0.12 | Cc1c(CC(=O)O)cc2ccc(F)cc2c1C1CCN(S(=O)(=O)c2cc(Cl)ccc2Cl)CC1 [Example 17, {4-[1-(2,5-Dichloro-benzenesulfonyl)-piperidin-4-yl]-6-fluoro-3-methyl-naphthalen-2-yl}-acetic acid]
5 | 0.058 | Cc1c(CC(=O)O)cc2ccc(F)cc2c1C1CCN(S(=O)(=O)c2c(Cl)cccc2Cl)CC1 [Example 18, {4-[1-(2,6-Dichloro-benzenesulfonyl)-piperidin-4-yl]-6-fluoro-3-methyl-naphthalen-2-yl}-acetic acid]
6 | 0.008 | Cc1c(CC(=O)O)cc2ccc(F)cc2c1C1CCN(S(=O)(=O)Cc2ccccc2)CC1 [Example 19, [6-Fluoro-3-methyl-4-(1-phenylmethanesulfonyl-piperidin-4-yl)-naphthalen-2-yl]-acetic acid]
7 | 0.045 | Cc1c(CC(=O)O)cc2ccc(F)cc2c1C1CCN(S(=O)(=O)Cc2cccc(Cl)c2)CC1 [Example 21, {4-[1-(3-Chloro-phenylmethanesulfonyl)-piperidin-4-yl]-6-fluoro-3-methyl-naphthalen-2-yl}-acetic acid]
8 | 0.023 | Cc1c(CC(=O)O)cc2ccc(F)cc2c1C1CCN(S(=O)(=O)Cc2ccc(Cl)cc2)CC1 [Example 22, {4-[1-(4-Chloro-phenylmethanesulfonyl)-piperidin-4-yl]-6-fluoro-3-methyl-naphthalen-2-yl}-acetic acid]
9 | 0.023 | Cc1c(CC(=O)O)cc2ccc(F)cc2c1C1CCN(S(=O)(=O)C2CCCC2)CC1 [Example 24, [4-(1-Cyclopentanesulfonyl-piperidin-4-yl)-6-fluoro-3-methyl-naphthalen-2-yl]-acetic acid]
10 | 0.014 | Cc1c(CC(=O)O)cc2ccc(F)cc2c1C1CCN(S(=O)(=O)N2CCCC2)CC1 [Example 25, {6-Fluoro-3-methyl-4-[1-(pyrrolidine-1-sulfonyl)-piperidin-4-yl]-naphthalen-2-yl}-acetic acid]
11 | 0.027 | Cc1c(CC(=O)O)cc2ccc(F)cc2c1C1CCN(S(=O)(=O)Cc2ccccc2N)CC1 [Example 27, {4-[1-(2-Amino-phenylmethanesulfonyl)-piperidin-4-yl]-6-fluoro-3-methyl-naphthalen-2-yl}-acetic acid]

Further lines, the compound ahead of its results:

Row | SMILES | IC50 [µM]
12 | COc1ccccc1S(=O)(=O)N1CCC(c2c(C)c(CC(=O)O)cc3ccc(F)cc23)CC1 [Example 20, {6-Fluoro-4-[1-(2-methoxy-benzenesulfonyl)-piperidin-4-yl]-3-methyl-naphthalen-2-yl}-acetic acid] | 0.009
13 | Cc1c(CC(=O)O)cc2ccc(F)cc2c1C1CCN(S(=O)(=O)c2cccc(C(F)(F)F)c2)CC1 [Example 23] | 0.266
14 | Cc1c(CC(=O)O)cc2ccc(F)cc2c1C1CCN(S(=O)(=O)Cc2ccccc2[N+](=O)[O-])CC1 [Example 26, {6-Fluoro-3-methyl-4-[1-(2-nitro-phenylmethanesulfonyl)-piperidin-4-yl]-naphthalen-2-yl}-acetic acid] | 0.032
15 | Cc1c(CC(=O)O)cc2ccc(F)cc2c1C1CCN(C(=O)c2ccc(Cl)cc2Cl)CC1 [Example 28, {4-[1-(2,4-Dichloro-benzoyl)-piperidin-4-yl]-6-fluoro-3-methyl-naphthalen-2-yl}-acetic acid] | 0.06
16 | Cc1c(CC(=O)O)cc2ccc(F)cc2c1C1CCN(C(=O)c2c(Cl)cccc2Cl)CC1 [Example 29, {4-[1-(2,6-Dichloro-benzoyl)-piperidin-4-yl]-6-fluoro-3-methyl-naphthalen-2-yl}-acetic acid] | 0.02
17 | Cc1c(CC(=O)O)cc2ccc(F)cc2c1C1CCN(C(=O)c2cc(F)ccc2F)CC1 [Example 30, {4-[1-(2,5-Difluoro-benzoyl)-piperidin-4-yl]-6-fluoro-3-methyl-naphthalen-2-yl}-acetic acid] | 0.083
18 | Cc1c(CC(=O)O)cc2ccc(F)cc2c1C1CCN(C(=O)Cc2ccccc2)CC1 [Example 31, [6-Fluoro-3-methyl-4-(1-phenylacetyl-piperidin-4-yl)-naphthalen-2-yl]-acetic acid] | 0.117
19 | Cc1c(CC(=O)O)cc2ccc(F)cc2c1C1CCN(C(=O)Nc2c(F)cccc2F)CC1 [Example 32, {4-[1-(2,6-Difluoro-phenylcarbamoyl)-piperidin-4-yl]-6-fluoro-3-methyl-naphthalen-2-yl}-acetic acid] | 0.371
20 | Cc1c(CC(=O)O)cc2ccc(F)cc2c1C1CCN(C(=O)Nc2ccc(Cl)cc2Cl)CC1 [Example 33, {4-[1-(2,4-Dichloro-phenylcarbamoyl)-piperidin-4-yl]-6-fluoro-3-methyl-naphthalen-2-yl}-acetic acid] | 0.03
21 | Cc1c(CC(=O)O)cc2ccc(F)cc2c1C1CCN(C(=O)Nc2ccccc2Cl)CC1 [Example 34, {4-[1-(2-Chloro-phenylcarbamoyl)-piperidin-4-yl]-6-fluoro-3-methyl-naphthalen-2-yl}-acetic acid] | 0.059
22 | COc1ccccc1NC(=O)N1CCC(c2c(C)c(CC(=O)O)cc3ccc(F)cc23)CC1 [Example 35, {6-Fluoro-4-[1-(2-methoxy-phenylcarbamoyl)-piperidin-4-yl]-3-methyl-naphthalen-2-yl}-acetic acid] | 0.241
23 | Cc1c(CC(=O)O)cc2ccc(F)cc2c1C1CCN(C(=O)Nc2cccc(C(F)(F)F)c2)CC1 [Example 36] | 0.437
